The test system of one experiment is PSNL mice. In words: Mechanical allodynia. Type of experiment: in vivo, mouse. The settings on record: 50 mg/kg i.p., 90 mins.
The next experiment concerns the target T1, hGlyT2^WT (Homo sapiens, UniProt Q9Y345).
T1 sequence (Q9Y345 1-797): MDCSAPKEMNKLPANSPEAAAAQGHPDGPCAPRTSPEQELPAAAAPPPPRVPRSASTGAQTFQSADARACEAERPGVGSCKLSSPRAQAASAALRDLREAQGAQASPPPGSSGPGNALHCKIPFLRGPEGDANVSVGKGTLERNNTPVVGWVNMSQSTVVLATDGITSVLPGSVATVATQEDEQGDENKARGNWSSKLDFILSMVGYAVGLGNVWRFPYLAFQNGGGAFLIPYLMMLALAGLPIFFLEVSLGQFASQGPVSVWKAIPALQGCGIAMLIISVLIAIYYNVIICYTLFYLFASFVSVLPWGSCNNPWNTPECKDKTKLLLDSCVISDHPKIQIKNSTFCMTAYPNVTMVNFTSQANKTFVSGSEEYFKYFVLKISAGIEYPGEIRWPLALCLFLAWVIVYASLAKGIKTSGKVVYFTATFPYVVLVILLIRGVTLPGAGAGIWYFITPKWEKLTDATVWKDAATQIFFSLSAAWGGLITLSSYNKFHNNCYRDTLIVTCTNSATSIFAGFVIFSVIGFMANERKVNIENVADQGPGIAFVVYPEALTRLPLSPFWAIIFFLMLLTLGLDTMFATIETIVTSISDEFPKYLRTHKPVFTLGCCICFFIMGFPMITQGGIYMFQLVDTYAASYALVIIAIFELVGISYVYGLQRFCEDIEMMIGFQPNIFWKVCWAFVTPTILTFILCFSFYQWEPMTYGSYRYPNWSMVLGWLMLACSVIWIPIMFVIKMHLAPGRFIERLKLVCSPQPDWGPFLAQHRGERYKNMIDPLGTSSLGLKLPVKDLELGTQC
Type of experiment: cell-based. The settings on record: glycine concentration-dependent currents with co-applied inhibitor.

From article PMC12667952 (bioRxiv, 2025) come the findings set out here.

Each structure is given as a SMILES string.

Turning to `CN(C)C1(CNC(=O)c2ccc3c(c2)CCN3C(=O)c2ccccc2)CCOCC1` [RPI-GLYT2–82, 1-benzoyl-N-((4-(dimethylamino)tetrahydro-2H-pyran-4-yl)methyl)indoline-5-carboxamide], in the experiment on PSNL mice, the “Peak reduction of response rate to von Frey stimulus” value was 22.5%. Also, the Mechanism of inhibition result at hGlyT2^WT is reported as “non-competitive inhibitor”.
